These results are taken from US10464957B2, “Oxidized lipids and methods of use thereof” (Vascular Biogenics Ltd., priority 2014, dated 2019).

The subject of experiment [1] is human monocytes (primary CD14+). In words: Chemokine-induced cell migration trans-well assay. It counts as cell-based. To be noted: RANTES 100 ng/ml and MCP-1 50 ng/ml, 2-4 hours, FACS count. As to the method: Venous blood samples were obtained from healthy male donors in compliance with the Institutional Review Board at the Sheba Medical Center, Ramat Gan, Israel. PBMCs were isolated on Ficoll-Paque PLUS (GE Healthcare, Uppsala, Sweden) using 50 ml Leucosep tubes (Greiner Bio-One, Frickenhausen, Germany). Cells were washed in PBS (Kibbutz Beit Haemek, Israel) and incubated at 4° C. for 15 minutes in a buffer containing PBS and 0.5% bovine serum albumin (BSA) with human CD14 microbeads (Miltenyi Biotec, Bergisch Gladbach, Germany).
Cells (10^6/ml) were pretreated for 20 min with VB-201 or VB-701 at the doses indicated in FIG. 5, or with solvent (Sol).
To test for chemokine-induced cell migration, RANTES (100 ng/ml; Cat. No. 300-06, PeproTech, Israel) and MCP-1 (50 ng/ml; Cat. No. 300-04, PeproTech, Israel) were dissolved in RPMI-1640 medium supplemented with 0.5% fetal bovine serum (FBS) and placed at the lower chamber of QCM 24-well, […], migration assay plates (Corning-Costar, Corning, N.Y.). Cells (3×10^5) were seeded in the upper chamber and incubated for 2-4 hours. Subsequently, the number of cells which migrated to the lower compartment was determined by fluorescence-activated cell sorting (FACS).

The test system of experiment [2] is MCP-1-induced signaling in human monocytes (THP-1 cell line). In words: MCP-1-induced signaling, western blot. To be noted: 20 min pretreatment, 50 ng/ml MCP1, THP-1. The experiment is classed as cell-based. As to the method:
THP-1 cells (10^6/ml) were pretreated for 20 min with VB-201 or VB-701 at the doses indicated in FIG. 4, or with solvent, followed by activation with 50 ng/ml MCP1, or were untreated (“Unt”). Cells were washed and resuspended in lysis buffer containing 1:100 dithiothreitol (DTT), phosphatase and protease inhibitors (Thermo Scientific). Samples were loaded onto a precast Criterion TGX gel (Bio-Rad, Hemel Hempstead, UK) and transferred onto nitrocellulose membrane. Blots were blocked with 5% milk or BSA in Tris buffered saline and Tween 20 (TBST) for 1 h, followed by incubation with primary and secondary antibodies. Membranes were developed using an ECL kit (Thermo Scientific). The following antibodies were used for immunoblotting:
Primary antibodies: p-ERK1/2 (Cat. No. M8159; 1:10000) was purchased from Sigma (Israel). p-AKT (Cat. No. 4060; 1:1000) was purchased from Cell Signaling Technology (Danvers, Mass.). αTubulin served as a loading control and was purchased from Sigma (Israel).
Secondary antibodies: HRP donkey anti-rabbit (1:5000) and HRP goat anti-mouse (1:3000) were from Jackson ImmunoResearch (West Grove, Pa., USA). HRP donkey anti-goat (1:5000) was from Santa Cruz Biotechnology.

Another experiment deals with nephrectomized rats. In words: 5/6 nephrectomy chronic renal disease rat model (focal and segmental glomerulosclerosis). It counts as in vivo, Sprague Dawley (SD) Rats. The procedure:
Male Sprague Dawley (SD) Rats (Harlan Laboratories, Israel) with an initial weight of 200 g were housed 2-3 per cage in IVC cages in dedicated HVAC (heat, ventilation, air conditioning animal facility at a temperature of 22±2° C. and RH (relative humidity) of 55±15%). Temperature and humidity were monitored continuously. The facility had no exposure to outside light and was maintained on automatic alternating cycles of 12 hours of light and 12 hours of dark. Animals were provided with a commercial rodent diet (Harlan Teklad TRM Rat/Mouse Diet) ad libitum and allowed free access to autoclaved water, supplied to each cage via polysulphone bottles with stainless steel sipper tubes. All animal work was approved by the Animal Care and Use Committee of Israel (IL-13-03-027).
Rats were divided into three groups: (1) Healthy rats (n=3) in group A, (2) Sham group—subjected to chirurgical process but without kidney mass reduction (n=3) in group B, and (3) the rest were induced with chronic renal failure (n=32). Chronic renal failure was induced by a two stage (5/6) nephrectomy (Nx), with subtraction firstly of about ⅔ of the left kidney by left flank incision and, one week later, complete removal of the right kidney. General anesthesia consisted of intraperitoneal injection of ketamine 100 mg/kg and xylazine 20 mg/kg (0.85 ml ketamine+0.15 ml xylazine for each ml preparation; 1 μl/g BW was injected I.P).
One week following the second surgery, rats were randomly assigned to the following experimental groups:
Nephrectomized, orally administered with VB-703 4 mg/kg (n=8); and
Nephrectomized, orally administered with telmisartan 10 mg/kg as positive control (n=8).
Body weight (BW) was monitored throughout the study and rats were treated by oral gavage according to their body weight for 7 weeks. Rats were sacrificed by CO2 inhalation 8 weeks from removal of the right kidney (2nd surgery).
Proteinuria and albuminuria was determined in urine specimens, collected during a 24-hour period, from animals housed in cages at 4 weeks (3 w of treatment) and 8 weeks (7 w of treatment) after the subtotal nephrectomy (2nd surgery). Urine samples were analyzed for: glucose, urea, sodium, potassium, creatinine, total protein, and albumin.
Upon sacrifice, at 8 weeks, kidneys were collected, weighed and fixed in 4% formaldehyde.
For light microscopy, paraffin-embedded tissue slides of 4 μm were stained with Periodic Acid-Schiff (PAS) reagent, Masson's Trichrome and Hematoxylin & Eosin.
Glomerular sclerosis index. Glomerulosclerosis was assessed by PAS-stained sections using a semiquantitative scoring system. The extent of glomerulosclerosis was evaluated by examining mostly 100 randomly selected glomeruli at a magnification of ×400 and applying a score system according to the percentage of sclerosed glomerular area. The score was graded from 0 to 4: (0=0% area; 1=1-25%; 2=26-50%, 3=51-75%, 4=76% and above). The mean of all scored glomeruli was presented. Moreover, the extent of global and segmental glomerulosclerosis was evaluated in the same glomeruli, where <80% sclerosis was referred to as segmental and >80% was referred to as global.
Glomerular area. The glomerular area of mostly 100 randomly selected glomeruli at a magnification of ×100 was quantitated by counting squares covered by glomeruli area using a grid and the mean glomeruli area was calculated.
Renal tissues were fixed in 4% formaldehyde and embedded in paraffin. The paraffin-embedded tissues were then cut to form tissue slides of 4 μm. Immunohistochemistry of the paraffin-embedded tissue slides was analyzed using antibodies in the following concentration: monoclonal mouse anti rat CD-68 (ED-1, Serotec MCA341) 1:25. For quantitation of interstitial CD68+ staining, the number of positive cells was counted in 20 randomly selected non-overlapping fields per animal, and the mean value was presented. […]

Setting [3] is: Nx rats, VB-703 4 mg/kg, Telmisartan 10 mg/kg, 8 weeks, Mean ± S.E.
The mark [4] stands for this setting: VB-703 4 mg/kg, telmisartan 10 mg/kg, oral 7 weeks, vs Nx PBS 0.5% Eth.

With `CCCCCCCCCCCCCCCCOCC(COP(=O)([O-])OCC[N+](C)(C)C)OCCCCC(=O)O` (stereo not drawn) [VB-201, 1-hexadecyl-2-(4′-carboxy)butyl-glycero-3-phosphocholine, reference compound], the “chemokine-induced migration of human monocytes” value in experiment [1] is listed as “inhibit”. Besides, the “formation of p-AKT and p-ERK induced by MCP1” value in experiment [2] was “inhibit”.
Consider `CCCCCCCCCCC(CCCCCCCC)COC[C@H](COP(=O)([O-])OCC[n+]1ccccc1)OCCCCC(=O)O` (stereo partly drawn) [VB-703, (R)-1-(2′-octyl)dodecyl-2-(4′-carboxy)butyl-sn-glycero-3-phosphoric acid pyridiniumethyl ester], for which, in the experiment on nephrectomized rats (setting [3]), the “Glomerular sclerosis Global %” value stood at 1.9 ± 1.55%, the “Glomerular sclerosis Global & Segmental %” value turned out to be 24.7 ± 3.77% and the “Glomerular sclerosis Segmental %” value stood at 22.9 ± 2.83%. Also, the urinary albumin/creatinine/day ratio entry in the experiment with nephrectomized rats (VB-703 4 mg/kg oral, at the termination of the study (8 weeks)) is reported as “significantly improved”. Besides, in the experiment with nephrectomized rats (VB-703 4 mg/kg, telmisartan 10 mg/kg, 8 weeks), the “glomerular and interstitial monocyte/macrophage infiltration (CD68 positive cells)” value is listed as “did not produce a significant effect”. Also, in the experiment on nephrectomized rats (setting [4]), the “reduction of damaged glomeruli percent” value is 38% and the “reduction of sclerotic glomeruli” value was determined as 49%.
